Experiment: gradient 5% acetonitrile 3 min, to 50% in 2 min, to 85% in 15 min, held 3 min, 100 µL/min
Details: column: Zorbax Extend-C18 2.1 x 50 mm; eluents: water / acetonitrile, 0.1% formic acid
How it was run: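 Over 3 months, pure standards in mixtures of ~100 molecules were run by HPLC coupled to a quadrupole time-of-flight mass spectrometer in positive and negative ionization mode. The column was a Zorbax Extend-C18 (2.1 × 50 mm, 1.8 μm) at 100 μL/min, eluted with water and acetonitrile each holding 0.1% formic acid, with 40 μL dead and 900 μL dwell volumes. Retention time was determined from adduct peaks chosen by software and checked manually.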

Row | Compound | RP-LC retention time [s]
1 | Cc1sc(NC(=O)Cn2c(=O)sc3ccccc32)nc1-c1ccc(Cl)cc1 | 1110
2 | N#CCSc1nnc2ccc3ccccc3n12 | 639
3 | CC1CCC2(CC1)N=C(N1CCN(c3ncccn3)CC1)NC(=O)C2C#N (centres undefined) | 649
4 | O=C(c1cn2cc(Cl)ccc2n1)N1CCN(c2ccc(F)cc2)CC1 | 876
5 | Cc1ccc(-n2ccc(=O)c(-c3nc(-c4ccc(F)c(Br)c4)no3)n2)cc1C | 1120
6 | COc1ccc(-c2ncc3c(n2)CCN(S(=O)(=O)c2ccc(F)c(Cl)c2)C3)cc1 | 1130
7 | CC(C)CNC(=O)c1cn(-c2ccc(-c3nc(C(C)(C)C)no3)cn2)cn1 | 1020
8 | CC(C)Cc1ccc(S(=O)(=O)N2CCC3(CCC(CN4CCN(C)CC4)O3)CC2)cc1 (centres undefined) | 688
9 | Cc1ccc(NS(=O)(=O)c2ccc(-c3c(C)noc3C)cc2)c(Br)c1 | 1020
10 | Cc1ccc(Cl)c(NS(=O)(=O)c2cc3c(s2)CCN(C(=O)C2CC2)C3)c1 | 901
11 | Cc1cc(C)c2nc(C)cc(C(=O)NCC(C)C)c2c1 | 701
12 | CCCc1noc(-c2ccnc(-n3ncc(C(=O)NCC)c3C)c2)n1 | 828
13 | Cc1ccn(-c2ccc(N3CCN(C(=O)c4c(F)cccc4Cl)CC3)nn2)n1 | 752
14 | CC(C)(C)c1ccc(OCC(O)CN)cc1 (centres undefined) | 585
15 | CCOC(=O)C(C#N)C(=N)C1C(=O)OC2CCCCC21 (centres undefined) | 839
16 | Cc1ccc(-c2nc3n(CC(=O)NC(C)C)c4c(c(=O)n3n2)CCC4)cc1 | 733
17 | O=C(C1CC(=O)N(c2ccc3c(c2)CCN3C(=O)C2CCC2)C1)N1CCCCC1 (centres undefined) | 760
18 | CN(C)c1ccc(NC(=O)Cn2nc3c(Oc4ccc(Cl)cc4)nccn3c2=O)cc1 | 674
19 | Cc1nc(-c2nc3c(s2)CN(C(=O)COc2ccc(Cl)cc2)CC3)cs1 | 922
20 | Fc1cccc(CNc2cc(-n3cccn3)ncn2)c1 | 854

Row | Compound | RP-LC retention time [s]
21 | COc1ccc(Cl)cc1NS(=O)(=O)c1c(C)sc(C)c1-c1cc(C(F)(F)F)on1 | 1220
22 | O=C(NCc1ccc(F)cc1F)c1cn2cc(Cl)ccc2n1 | 858
23 | CCC(c1cccs1)N1C(=O)[C@H]2CN(S(=O)(=O)c3ccc(Cl)cc3)C[C@H]2C1=O (some centres undefined) | 1060
24 | Cc1ccc(NC(=O)N2CCC3(CC2)NC(=O)c2cc(F)ccc2N3C)cc1C | 832
25 | COCCN1C(=O)CC[C@]2(C(=O)N(C)Cc3cccnc3)CCCC[C@@H]12 | 544
26 | Fc1cccc(Nc2ncnc3c2cnn3-c2ccccc2)c1 | 1020
27 | O=C(NC1CCCc2c1[nH]c1c(Cl)cccc21)c1ccncc1 (centres undefined) | 850
28 | O=C(Nc1ccc(Br)cc1)N1CCCC1c1nc(-c2ccc(F)cc2F)no1 (centres undefined) | 1050
29 | CCc1noc(NC(C)=O)c1-c1ccc(C)c(S(=O)(=O)Nc2cccc(Cl)c2)c1 | 867
30 | COc1ccc(NC(=O)N2[C@H]3CC[C@@H]2c2cnc(-c4ccc(F)cc4)nc2C3)cc1OC | 875
31 | Cc1noc(-c2ccc(NC(=O)c3cccs3)cc2)n1 | 776
32 | O=C(Cc1cc(-c2ccc3c(c2)OCO3)on1)Nc1ccc(F)c(F)c1F | 888
33 | Cc1ccc(-n2nc3c(=O)n(C(C)C(=O)NC4CC4)nc(C)c3c2C)cc1 (centres undefined) | 744
34 | CO[C@H]1C(=O)N(C(C)C)[C@H]1C1CCN(S(=O)(=O)c2cccc(F)c2)CC1 | 860
35 | Cc1nnc(C2CCCN(C(=O)c3nc4ccccc4s3)C2)s1 (centres undefined) | 736
36 | Cc1ccnc(Nc2nc(CC(=O)NCCc3cccs3)cs2)c1 | 581
37 | CC1=NN(CCC#N)C(=O)/C1=C\c1ccc(N(C)C)cc1 | 691
38 | CC(C)C(=O)N1CCCCCCN(C)C(=O)[C@@H]2CCC[C@@H]21 | 760
39 | Cc1cc(C(=O)N2CCCC2)c2cc(Br)ccc2n1 | 677
40 | CN1c2cc(F)ccc2C(=O)NC12CCN(C(=O)Nc1ccc3c(c1)OCCO3)CC2 | 725

Results, then the molecule that gave them:

Row | RP-LC retention time [s] | Compound
41 | 762 | Cc1nnc(N2CCCC(C(=O)NCCc3cccs3)C2)c2nn(-c3ccc(Cl)cc3)c(C)c12 (centres undefined)
42 | 918 | COc1ccc(-c2nnc(NC(=O)CSc3nc4ccccc4s3)s2)cc1
43 | 884 | CCOc1ccc(S(=O)(=O)N2CCCC(C(=O)NCCc3ccc(OC)c(OC)c3)C2)cc1 (centres undefined)
44 | 821 | Cc1cccc(-c2nnc(-c3nc(NC4CCS(=O)(=O)C4)c4ccccc4n3)o2)c1 (centres undefined)
45 | 984 | CCn1c(=O)c(N2CCC(C(=O)NCCc3c[nH]c4ccc(C)cc34)CC2)nc2cccnc21
46 | 697 | O=C(N[C@H]1C[C@@H]2C[C@H]1CN2S(=O)(=O)c1cccnc1)c1ccccc1
47 | 599 | COc1cccc(C2CC(c3ccc4c(c3)OCO4)=NC3(CCN(C(C)C)CC3)N2)c1O (centres undefined)
48 | 982 | Cc1ccc(N2C(=O)c3ccc(C(=O)N4CCN(c5ccccc5F)CC4)cc3C2=O)cc1
49 | 615 | Cc1oc(-c2ccc(Cl)cc2)nc1CN1CCC(C(=O)NCCCN(C)Cc2ccccc2)CC1
50 | 774 | CCN(CC)CCNC(=O)c1nn(-c2ccc(Cl)cc2)c2c1CCc1cc(OC)ccc1-2
51 | 570 | CN(CCCNC(=O)C1CCCN(c2ccc(N3CCOCC3)nn2)C1)c1ccccc1 (centres undefined)
52 | 684 | Cn1c(=O)n([C@H]2CCCN(C(=O)Nc3ccc4c(c3)OCCO4)C2)c2ncccc21
53 | 777 | CC(C)Cn1nc2n(c1=O)CCN(S(=O)(=O)Cc1ccccc1)CC2
54 | 624 | CCOc1ccc2c(n1)CCN(C(=O)NCCOC)C2
55 | 710 | Cc1ccn2cc(-c3ccc(NC(=O)c4ccc5ccccc5c4)cc3)nc2n1
56 | 711 | CCc1ccc(NC(=O)Cn2c(N3CCOCC3)nc(C)cc2=O)cc1
57 | 631 | Cc1ccccc1-c1ccc(N2CCN(C(=O)NC3CCCCC3)CC2)nn1
58 | 790 | CCn1ccc(C(=O)N2CCCC2(CO)Cc2ccccc2)n1 (centres undefined)
59 | 858 | Cc1ccc(C)c(N2CCN(c3ccnc(SCC(=O)Nc4ccc5c(c4)OCO5)n3)CC2)c1
60 | 801 | O=c1c2cnc(N3CCOCC3)nc2ccn1CCc1c[nH]c2ccccc12
61 | 732 | COCCN1C(=O)[C@H]2CN(C(=O)Nc3ccccc3)C[C@H]2C1=O
62 | 607 | O=C(NCc1ccc2c(c1)OCO2)C1=CCN(Cc2ccccc2)CC1
63 | 631 | CC(C)c1ccc2nc3ccc(C(=O)NCCN(C)C)cn3c(=O)c2c1
64 | 729 | CCn1cnc(S(=O)(=O)N2CCC(C(=O)N3CCc4ccccc4C3)CC2)c1
65 | 785 | O=C(NCCOc1ccc2c(c1)OCO2)c1ccccc1Cl

Row | RP-LC retention time [s] | Compound
66 | 563 | CCN1CCN(c2c(C(=O)c3ccccc3)cnc3cc4c(cc23)OCO4)CC1
67 | 922 | COc1ccc(C2(C(=O)N3CCCCCCN(C)C(=O)[C@@H]4CCC[C@@H]43)CC2)cc1
68 | 602 | O=C(CC1CCN(C(=O)c2ccc3oc(C4CC4)nc3c2)CC1)N1CCN(c2ccccn2)CC1
69 | 765 | CCn1cc(CN2CCC(C(=O)NCCCc3ccccc3)CC2)c2cc(OC)ccc21
70 | 670 | Cc1ccn2c(NC(=O)c3cccc(F)c3)c(-c3ccccc3)nc2c1
71 | 582 | CC(C)n1cnc2cc(CNC(=O)c3ccnn3C)ccc21
72 | 744 | O=S(=O)(c1cccs1)N1CCC(n2cnnc2-c2ccccc2)CC1
73 | 707 | CCOc1cc(=O)n2c(c1C(=O)Nc1ccc(C(=O)OC)cc1)CCCC2
74 | 798 | Cc1ccc2[nH]cc(CCN3CC(C(=O)Nc4ccccc4C)CC3=O)c2c1 (centres undefined)
75 | 757 | CCc1ccc(CNC(=O)c2cn3ccccc3n2)cc1
76 | 849 | COc1ccc(-n2c(=O)n(C)c(=O)c3cc(C(=O)NCc4ccccc4F)cnc32)cc1
77 | 734 | CCn1cnc2cc(-c3noc(C4CC(=O)N(c5ccc(C)c(C)c5)C4)n3)ccc21 (centres undefined)
78 | 762 | CC(C)CCNC(=O)C1CCCN(C(=O)Nc2ccc(NC(=O)NC3CCCC3)cc2)C1 (centres undefined)
79 | 808 | Cc1ccc(-c2ccc(N3CCCC(C(=O)NCCc4cccs4)C3)nn2)cc1C (centres undefined)
80 | 654 | COc1ccc(-n2nnc(C(=O)O)c2-c2ccccn2)cc1
81 | 1110 | COc1cccc(N2C(=O)C3N=NN(c4ccc(C)c(F)c4)C3C2=O)c1 (centres undefined)
82 | 635 | COc1ccc(NC(=O)c2cnc(N3CCC4(CC3)OCCO4)nc2N)cc1
83 | 814 | CCCOc1nccnc1NC1CCN(C(=O)c2cccs2)CC1
84 | 732 | COc1ccc(OC)c(NC(=O)CN2CCN(Cc3ccccc3)C(=O)C2=O)c1
85 | 777 | COc1cc2c(cc1OC)CN(CCc1ccc(NC(=O)c3cc(OC)c(OC)cc3NC(=O)c3cnc4ccccc4c3)cc1)CC2
86 | 762 | CCn1cc(CCNC(=O)Nc2ccc(C)c(C)c2)c2cccnc21
87 | 797 | Cc1cc2c(c(=O)n(-c3ccccc3)c(=O)n2CC(=O)Nc2ccc(F)cc2)n1C
88 | 831 | O=C(COc1ccc(Cl)cc1)N1CCC(c2nnc(-c3ccc(F)cc3)o2)CC1
89 | 1140 | COC(=O)c1ccccc1NC(=O)N1CCOc2ccc(C)cc21
